Measured values reported in the NIST ThermoML archive (doi:10.1016/j.jct.2014.04.021).
Numbers after ± are expanded uncertainties.

Settings: for mass density: 101.33 kPa, Liquid, Vibrating tube method; for Normal melting temperature: Crystal, DTA

## CCCCCC[N+]1(C)CCCCC1.O=S(=O)([N-]S(=O)(=O)C(F)(F)F)C(F)(F)F
293 K
  mass density: 1329.5 ± 1.1 kg/m3
298.15 K
  mass density: 1325.4 ± 1.1 kg/m3

## CCCCn1cc[n+](C)c1.N#CC1=NC(C(F)(F)F)=NC1=C=[N-]
298.15 K
  mass density: 1199.65 ± 1.5 kg/m3

## C[n+]1ccn(CC#N)c1.N#Cc1nc(C(F)(F)F)[n-]c1C#N
  Normal melting temperature: 92.7 ± 0.4 °C

## CCCCCC[n+]1cccc2ccccc21.O=S(=O)([N-]S(=O)(=O)C(F)(F)F)C(F)(F)F [1-hexylquinolinium bis(trifluoromethylsulfonyl)amide]
  Normal melting temperature: 45 ± 0.4 °C

## OC[C@@H](O)[C@@H](O)[C@H](O)[C@@H](O)CO [D-sorbitol]
  Normal melting temperature: 98.6 ± 0.4 °C

## CCCCCC[n+]1ccc2ccccc2c1.O=S(=O)([N-]S(=O)(=O)C(F)(F)F)C(F)(F)F [N-hexylisoquinolinium bis(trifluoromethylsulfonyl)imide]
333.2 K
  mass density: 1349.3 ± 1.8 kg/m3

## OC[C@@H](O)[C@H](O)[C@@H](O)CO [xylitol]
  Normal melting temperature: 94.1 ± 0.4 °C
